Read-outs that look alike come from different tables or passages of the source.
What was measured:
[1] = system: HIV-1 infection of TZM-bl cells; test: HIV-1 infectivity enhancement assay, β-galactosidase luminescence; assay type: cell-based; details: for Rel-EFC / Log10 Infection Rel EFC: 1.3 µM peptide; for Rel-EFC: infection relative to EF-C (QCKIKQIINMWQ = 1); for Log10 Infection Rel EFC: log10 of infection relative to EF-C; for Log Infectivity: Fig. S7 panel A (plotted against β-sheet content), Log10 infection relative to EF-C, TZM-bl cells, asymmetric std dev errors; for Log10 Infection Rel EF-C: HIV-1 infection of TZM-bl cells; for Abs. Inf.: absolute infection signal, HIV-1 on TZM-bl cells, β-galactosidase luminescence; for Log10 Inf. rel. to EF-C: log10 of HIV-1 infection of TZM-bl cells relative to EF-C (EF-C = 0); for Log10 of Rel to EFC (Feb2021): Log10 of infection relative to EF-C, all peptides of FigS16
[2] = assay type: physicochemical; design: key to Fibril / Fibril Formation / TEM 2cat / Fibril: 1 = fibrils present; 0 non-fibrillar structures; details: for Fibril / Fibril / Fibril Formation: TEM; for Fibril / Fibril Formation: 1 mg/mL, uranyl acetate stain, qualitative
[3] = Zeta-potential measurement; assay type: physicochemical
How it was run: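 Samples: 1 mg/mL in PBS pH 7.4 (from DMSO), 1 d at RT, then diluted in 1 mM KCl immediately before measurement. Triplicates, two independent runs averaged.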

[4] = Turbidity, derived count rate of scattered light; assay type: physicochemical; details: for Count Rate: derived count rate of scattered light (turbidity); for Log10 Count Rate: turbidity, derived count rate of scattered light, data of Figure 2D
[5] = Log10 of infection rate relative to EF-C, Figure 3A source data
[6] = infection rate relative to EF-C, log10, data of Figure 2D
[7] = infection rate relative to EF-C, log10, source data of Figure 2C
[8] = FigS12 panel A, fibril category by TEM
[9] = 1 = fibrils present, 0 = non-fibrillar
[10] = 1 = fibrils present, 0 = non-fibrillar structures
[11] = zeta-potential of peptide, source data of Figure 2C
[12] = zeta-potential of the peptide assemblies, mean, Figure 3A source data
[13] = category: fibrils present or non-fibrillar

Sequence: NMWQKAKAQA
- Rel-EFC [1]: 0,04
- Log10 Infection Rel EFC [1]: -1,38
- Log Infectivity [1]: -1.376
- Log10 Infection Rel EF-C [1, 5]: -1.38
- Log10 Infection Rel EF-C [1, 6]: -1.376
- Log10 Infection Rel EF-C [1, 7]: -1.376
- Abs. Inf. [1]: 1137
- Log10 Inf. rel. to EF-C [1]: -1.376
- TEM 2cat ([2]; Fig S10 panel D): 1
- TEM 2cat [2, 8]: 1
- Fibril ([2]; FigS12 panel B): 1
- Fibril / Fibril Formation [2]: 1
- Fibril [2, 9]: 1
- Fibril [2, 10]: 1
- Zeta-Pot. [3]: -5.56
- Zeta-Potential / mV [3, 11]: -4.582 mV
- Zeta-Potential / mV [3, 12]: -5.56 mV
- Count Rate [4]: 242.2
- Log10 Count Rate [4]: 2.384

Sequence: NMWQKFKFQF
- Rel-EFC [1]: 0,27
- Log10 Infection Rel EFC [1]: -0,57
- Log Infectivity [1]: -0.5672
- Log10 Infection Rel EF-C [1, 5]: -0.57
- Log10 Infection Rel EF-C [1, 6]: -0.5672
- Log10 Infection Rel EF-C [1, 7]: -0.5672
- Log10 of Rel to EFC (Feb2021) [1]: -0.57
- Abs. Inf. [1]: 7323
- Log10 Inf. rel. to EF-C [1]: -0.5672
- TEM 2cat ([2]; Fig S10 panel D): 1
- Fibril / Fibril Formation [2]: 1
- Fibril [2, 9]: 1
- Fibril [2, 10]: 1
- TEM 2cat [2, 13]: 1
- Zeta-Pot. [3]: 9.56
- Zeta-Potential / mV [3, 11]: 10.63 mV
- Zeta-Potential / mV [3, 12]: 9.56 mV
- Count Rate [4]: 14045.43333
- Log10 Count Rate [4]: 4.148

Sequence: NMWQKIKIQI
- Rel-EFC [1]: 0,21
- Log10 Infection Rel EFC [1]: -0,69
- Log Infectivity [1]: -0.6877
- Log10 Infection Rel EF-C [1, 5]: -0.69
- Log10 Infection Rel EF-C [1, 6]: -0.6877
- Log10 Infection Rel EF-C [1, 7]: -0.6877
- Log10 of Rel to EFC (Feb2021) [1]: -0.69
- Log10 Inf. rel. to EF-C [1]: -0.6877
- TEM 2cat ([2]; Fig S10 panel D): 1
- Fibril / Fibril Formation [2]: 1
- Fibril [2, 9]: 1
- Fibril [2, 10]: 1
- TEM 2cat [2, 13]: 1
- Zeta-Pot. ([3]; zeta potential of peptide assemblies): 8.26
- Zeta-Potential / mV [3, 11]: 7.36 mV
- Zeta-Potential / mV [3, 12]: 8.26 mV
- Count Rate [4]: 10024.06667
- Log10 Count Rate [4]: 4.001

Sequence: NMWQKIKQII
- Rel-EFC [1]: 0,03
- Log10 Infection Rel EFC [1]: -1,6
- Log Infectivity [1]: -1.5971
- Log10 Infection Rel EF-C [1, 5]: -1.6
- Log10 Infection Rel EF-C [1, 6]: -1.5971
- Log10 Infection Rel EF-C [1, 7]: -1.5971
- Abs. Inf. [1]: 283.3
- Log10 Inf. rel. to EF-C [1]: -1.5971
- TEM 2cat ([2]; Fig S10 panel D): 0
- TEM 2cat [2, 8]: 0
- Fibril ([2]; FigS12 panel B): 0
- Fibril / Fibril Formation [2]: 0
- Fibril [2, 9]: 0
- Fibril [2, 10]: 0
- Zeta-Pot. [3]: -0.213
- Zeta-Potential / mV [3, 11]: 2.325 mV
- Zeta-Potential / mV [3, 12]: -0.21 mV
- Count Rate [4]: 982.4
- Log10 Count Rate [4]: 2.992

Sequence: NMWQKVGTPL
- Rel-EFC [1]: 0,02
- Log10 Infection Rel EFC [1]: -1,61
- Log Infectivity [1]: -1.607
- Log10 Infection Rel EF-C [1, 5]: -1.61
- Log10 Infection Rel EF-C [1, 6]: -1.607
- Log10 Infection Rel EF-C [1, 7]: -1.607
- Abs. Inf. [1]: 276.7
- Log10 Inf. rel. to EF-C [1]: -1.607
- TEM 2cat ([2]; Fig S10 panel D): 0
- TEM 2cat [2, 8]: 0
- Fibril ([2]; FigS12 panel B): 0
- Fibril / Fibril Formation [2]: 0
- Fibril [2, 9]: 0
- Fibril [2, 10]: 0
- Zeta-Pot. [3]: -9.62
- Zeta-Potential / mV [3, 11]: -5.334 mV
- Zeta-Potential / mV [3, 12]: -9.62 mV
- Count Rate [4]: 26.97
- Log10 Count Rate [4]: 1.431

Sequence: PPFHPPPFHP
- Rel-EFC [1]: 0,02
- Log10 Infection Rel EFC [1]: -1,75
- Log Infectivity [1]: -1.751
- Log10 Infection Rel EF-C [1, 5]: -1.75
- Log10 Infection Rel EF-C [1, 6]: -1.751
- Log10 Infection Rel EF-C [1, 7]: -1.751
- Abs. Inf. [1]: 263.3
- Log10 Inf. rel. to EF-C [1]: -1.751
- TEM 2cat ([2]; Fig S10 panel D): 0
- TEM 2cat [2, 8]: 0
- Fibril ([2]; FigS12 panel B): 0
- Fibril / Fibril Formation [2]: 0
- Fibril [2, 9]: 0
- Fibril [2, 10]: 0
- Zeta-Pot. [3]: -15.8
- Zeta-Potential / mV [3, 11]: -9.582 mV
- Zeta-Potential / mV [3, 12]: -15.8 mV
- Count Rate [4]: 59.13
- Log10 Count Rate [4]: 1.772

Sequence: QCKAKAQA
- Rel-EFC [1]: 0,03
- Log10 Infection Rel EFC [1]: -1,6
- Log Infectivity [1]: -1.598
- Log10 Infection Rel EF-C [1, 5]: -1.6
- Log10 Infection Rel EF-C [1, 6]: -1.598
- Log10 Infection Rel EF-C [1, 7]: -1.598
- Abs. Inf. [1]: 806.7
- Log10 Inf. rel. to EF-C [1]: -1.598
- TEM 2cat ([2]; Fig S10 panel D): 0
- TEM 2cat [2, 8]: 0
- Fibril ([2]; FigS12 panel B): 0
- Fibril / Fibril Formation [2]: 0
- Fibril [2, 9]: 0
- Fibril [2, 10]: 0
- Zeta-Pot. [3]: 0.674
- Zeta-Potential / mV [3, 11]: 0.4918 mV
- Zeta-Potential / mV [3, 12]: 0.67 mV
- Count Rate [4]: 1319.1
- Log10 Count Rate [4]: 3.12

Sequence: QCKFKFQF
- Rel-EFC [1]: 0,77
- Log10 Infection Rel EFC [1]: -0,12
- Log Infectivity [1]: -0.1152
- Log10 Infection Rel EF-C [1, 5]: -0.12
- Log10 Infection Rel EF-C [1, 6]: -0.1152
- Log10 Infection Rel EF-C [1, 7]: -0.1152
- Log10 of Rel to EFC (Feb2021) [1]: -0.12
- Abs. Inf. [1]: 20303.33333
- Log10 Inf. rel. to EF-C [1]: -0.1152
- TEM 2cat ([2]; Fig S10 panel D): 1
- Fibril / Fibril Formation [2]: 1
- Fibril [2, 9]: 1
- Fibril [2, 10]: 1
- TEM 2cat [2, 13]: 1
- Zeta-Pot. [3]: 12.2
- Zeta-Potential / mV [3, 11]: 13.3 mV
- Zeta-Potential / mV [3, 12]: 12.2 mV
- Count Rate [4]: 2669
- Log10 Count Rate [4]: 3.426

Source: paper PMC10447463, “Data-mining unveils structure–property–activity correlation of viral infectivity enhancing self-assembling peptides” (Nature Communications, 2023)
